One compound from patent US20240189278A1, “NOVEL COMPOUNDS AND METHODS FOR INCREASING KLOTHO GENE EXPRESSION” (Klotho Therapeutics, Inc., priority 2017, published 2024) can be followed below.

Common to all, as to type: in vivo, mouse
One assay relates to DNA demethylase. Briefly: DNA demethylase activity in aged mice. As to conditions: 2 weeks treatment. The procedure: (§1) Animal study protocols. This example was performed according to the guide lines of the National Institute of Health on the care and use of laboratory animals and approved by the institutional Animal Care and Use Committee of University of Oklahoma Health Science Center. AU mice were housed in cages at room temperature (2S±PC) and were provided with Purina laboratory chow No 5001) and tap Water and lithium. 6 adult mice (12 months) and 20 old mice (24-26 months) mice were next in this study. The old (aged) mice were randomly divided into three subgroups and each group had 6 or 7 mice. […] The third group received no treatment Blood pressure was measured before and after treatment with the active agent at 1 week and 2 week. Pulse wave velocity (PWV) was measured after 2 weeks treatment with active agent all animals were sacrificed and perfused transcardially with PBS under deep anesthesia (ketamine xylazine, 90/10 mg, IP). […]
(§2) Measurement of DNA Demethylase and DNA Methylation force Activity. The DNA demethylase and DNA methyltransferase activity was measured by using DNA demethylase activity qualification kit (Abeam˜Cambridge, MA) and methyltransferase coloritnetxic assay kit (Cayman Chemical Company, Ann Arbor, Michigan). […] The absorbance was read at […] for DNA methylene activity assay and 510 nm for DNA methyltransferase activity using BioTeck Multi-Mole Microplate Readers.

The test system of the next assay is DNA methyltransferase. Kind of assay: DNA methyltransferase activity in aged mice. As to conditions: 2 weeks treatment. The procedure:
as §1, §2

The next assay concerns secreted Klotho. Kind of assay: Western blot of secreted Klotho in kidney and serum of aged mice. For orientation: A western blot detects proteins with antibodies after separation by electrophoresis.
For a further assay, the system named is full-length Klotho. Briefly: Western blot of full-length Klotho in kidney of aged mice. The following applies: kidney of 24-26 month-old mice.
The next assay concerns collagen-1. Kind of assay: Collagen in aortas of aged mice (staining and western blot). The procedure:
as §1
Histological and Immunohistochemical Staining: Thoracic aortas were quickly excised and placed in cold (4′T) physiological saline solution. […] Aorta rings were post-fixed in 4% paraformaldehyde, embedded in paraffin and sectioned at […] thickness, Collagen was quantified by Masson' s trichrome staining as described previously. […] Blue-stained collagen areas were quantified with ImageJ (NIH, Bethesda, USA) film 4-5 regions per section. […]

A further assay deals with MMP9. Briefly: MMP9 activity by zymogram PAGE, aortas of aged mice. As to conditions: zymography. The procedure: (§3) Animal study protocols. This example was performed according to the guide lines of the National Institute of Health on the care and use of laboratory animals and approved by the institutional Animal Care and Use Committee of University of Oklahoma Health Science Center. AU mice were housed in cages at room temperature (2S±PC) and were provided with Purina laboratory chow No 5001) and tap Water and lithium. 6 adult mice (12 months) and 20 old mice (24-26 months) mice were next in this study. The old (aged) mice were randomly divided into three subgroups and each group had 6 or 7 mice. One subgroup received compound H (10 mg/kg/day1, IP, Enamine LLC, Monmouth Jct., NJ) and one group received an equal volume of DMSO (dimethyl sulfoxide, 5%) and served as a control. The third group received no treatment Blood pressure was measured before and after treatment with the active agent at 1 week and 2 week. Pulse wave velocity (PWV) was measured after 2 weeks treatment with active agent all animals were sacrificed and perfused transcardially with PBS under deep anesthesia (ketamine xylazine, 90/10 mg, IP). […]
Measurements for MMP2 and MMP9 Activity. MMP2 and MMP9 activity were measured by Zymogram PAGE (Bio˜-Rad). Briefly Lysates from thoracic aorta were quantified using BCA assay (Pierce) and prepared under non-reducing, non-denaturing conditions. […]

Another assay concerns TGF-β3. Briefly: Western blot of TGF-β3, aortas of aged mice. The procedure:
as §3
(§4) Western Blot Analysis: Protein samples from the thoracic aorta were prepared in Lysis buffer as described previously. […] Protein abundance on western blots was quantified densitometry using Image lab software (Bio-Rad, Hercules, CA).

The test system of another assay is RUNX2. Briefly: Western blot of RUNX2, aortas of aged mice. The procedure: as §3, §4
The test system of another assay is ALP. Briefly: Western blot of ALP, aortas of aged mice. The procedure: as §3, §4
For another assay, the system named is SIRT1. Briefly: Western blot of SIRT1 and acetyl p53, aortas of aged mice. How it is done: as §3, §4
Another assay has as its system AMPK. Kind of assay: Western blot of AMPK and p-AMPK, aortas of aged mice. The procedure: (§5) Animal study protocols. This example was performed according to the guide lines of the National Institute of Health on the care and use of laboratory animals and approved by the institutional Animal Care and Use Committee of University of Oklahoma Health Science Center. AU mice were housed in cages at room temperature (2S±PC) and were provided with Purina laboratory chow No 5001) and tap Water and lithium. 6 adult mice (12 months) and 20 old mice (24-26 months) mice were next in this study. The old (aged) mice were randomly divided into three subgroups and each group had 6 or 7 mice. One subgroup received compound H (10 mg/kg/day1, IP, Enamine LLC, Monmouth Jct., NJ) and one group received an equal volume of DMSO (dimethyl sulfoxide, 5%) and served as a control. The third group received no treatment Blood pressure was measured before and after treatment with the active agent at 1 week and 2 week. Pulse wave velocity (PWV) was measured after 2 weeks treatment with active agent all animals were sacrificed and perfused transcardially with PBS under deep anesthesia (ketamine xylazine, 90/10 mg, IP). The aortas were then quickly removed, washed and cut into pieces for subsequent analyses.
(§6) Western Blot Analysis: Protein samples from the thoracic aorta were prepared in Lysis buffer as described previously. The proteins ([…] were resolved by SOS-PAGE and transferred to a nitrocellulose membrane (Bio-Rad). The membrane was then incubated overnight (4° C.) with a primary antibody against collagen-1-elastin. M1′v1P2; MMP9, ALP (Abeam1 1:1000), TGF-1, TGF˜N3 (Santa Cmz, 1:100). RUX2, or aNTulmliu (Cell Signaling. 1:1000). Goat autimouse or goat anti rabbit horseradish peroxidase (1:2000 . . . 1:5,000; Santa Cruz Biotechnology) was used as a secondary antibody find incubated for 1 hour at room temperature. Specific proteins were detected by chemiluminescent methods using Amersham™ western blotting detection reagents (GE Healthcare, UK). Protein abundance on western blots was quantified densitometry using Image lab software (Bio-Rad, Hercules, CA).

The next assay deals with eNOS. Kind of assay: Western blot of eNOS and p-eNOS, aortas of aged mice. The procedure: as §5, §6
A further assay has as its system LC3. Briefly: Western blot of LC3 in aortas, hearts and kidneys of old mice.

Turning to `O=C(Nc1ccccc1Cl)c1c[nH]c2ccccc12` [active agent, N-(2-chlorophenyl)-Ul-indde-3-carboxamide], in the assay with DNA demethylase, the DNA demethylase activity entry is “increased”. For the same compound, the DNA methyltransferase activity entry in the assay on DNA methyltransferase is listed as “did not affect”. Also, in the assay on secreted Klotho (kidney of 24-26 month-old mice), the “Secreted Klotho protein expression” value is “significantly increased”. Besides, in the assay on secreted Klotho (serum of aged mice), the “Circulating levels of secreted Klotho” value is recorded as “markedly increased”. Further, the “Full-length Klotho expression” value with full-length Klotho is “did not affect”. Besides, the Collagen production result in the assay on collagen-1 is “decreased”. Moreover, the MMP9 activity entry in the assay with MMP9 is given as “decreased”. For the same compound, the TGF-β3 expression entry in the assay on TGF-β3 is recorded as “decreased”. The RUNX2 expression result with RUNX2 was “decreased”. In addition, in the assay on ALP, the ALP expression entry is “decreased”. For the same compound, the “SirT1 activity (deacetylation of p53)” value in the assay with SIRT1 (aorta of old mice) was “increased”. Also, the SIRT1 expression result in the assay on SIRT1 (aortas of aged mice) is given as “did not affect”. The AMPK activity entry in the assay with AMPK (aortas of aged mice) was “increased”. Further, in the assay on AMPK (old mice, western blot), the AMPK expression result is “increased” and the p-AMPK expression entry is reported as “increased”. Besides, the eNOS activity result in the assay with eNOS (aortas of aged mice) is given as “increased”. For the same compound, in the assay with eNOS (old mice, western blot), the eNOS expression entry is “increased” and the p-eNOS expression entry is reported as “increased”. Also, the LC3 expression result in the assay with LC3 (aortas of old mice) is listed as “did not affect”. The LC3 expression result in the assay on LC3 (hearts of old mice) is reported as “did not affect”. Also, the LC3 expression result in the assay on LC3 (kidneys of old mice) is given as “did not affect”.
